Structures can show the parent of a compound that is named as a salt.
How the values were obtained:
[1] = system: HCT116; test: efficacy (maximum % inhibition of viability vs DMSO); higher = more cytotoxic; conditions: 72 h
How it was run: (§1)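 In 1536-well plates, 250 HCT116 cells per well were seeded and left for 5 h to attach. Luminescence from CellTiter-Glo was set against vehicle (0%) and positive control (-100%), and pattern correction was applied. IC50 and maximal efficacy come from four-parameter Hill fitting.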

[2] = system: HCT116; conditions: 72 h
How it was run: as §1

| Compound | efficacy ([1]; ICRF193 200 nM) [%] | IC50 cell viability ([2]; ICRF193 0 nM) [µM] | IC50 cell viability ([2]; ICRF193 200 nM) [µM] | efficacy ([1]; ICRF193 0 nM) [%] |
| --- | --- | --- | --- | --- |
| CN(C)CCCN1c2ccccc2CCc2ccccc21 [Imipramine] | 40.6 | > 45.8 | 13 | – |
| Cc1cc(Nc2ncc(Cl)c(Nc3ccccc3S(=O)(=O)C(C)C)n2)c(OC(C)C)cc1C1CCNCC1 [Ceritinib] | 105 | 18.3 | 29.1 | 108 |
| CNCCC=C1c2ccccc2CCc2ccccc21 [Pamelor] | 51.6 | > 45.8 | 29.1 | – |
| C=CCN1CC[C@]23CCCC[C@H]2[C@H]1Cc1ccc(O)cc13 [Levallorphan] | 42.1 | > 45.8 | 25.9 | – |
| C[C@H]1O[C@@H](O[C@H]2[C@@H](O)C[C@H](O[C@H]3[C@@H](O)C[C@H](O[C@H]4CC[C@@]5(C)[C@H](CC[C@@H]6[C@@H]5CC[C@]5(C)[C@@H](C7=CC(=O)OC7)CC[C@]65O)C4)O[C@@H]3C)O[C@@H]2C)C[C@H](O)[C@@H]1O [DIGITOXIN] | – | 0.0651 | > 45.8 | 73.1 |
| CC(C)NCC(O)COc1ccc(CCOCC2CC2)cc1 (stereo not given) [Betaxolol HCl] | 76.2 | > 45.8 | 5.17 | – |
| NC(=O)[C@@H]1CCCN1C(=O)[C@H](Cc1c[nH]cn1)NC(=O)[C@@H]1CCC(=O)N1 [PROTIRELIN] | 64.8 | 29.1 | 25.9 | 69.8 |
| COCCOC(=O)C1=C(C)NC(C)=C(C(=O)OC/C=C/c2ccccc2)C1c1cccc([N+](=O)[O-])c1 (stereo not given) [Cilnidipine] | 103 | 18.3 | 20.6 | 82.3 |
| CO[C@H]1C[C@H](O[C@@H]2/C(C)=C/C[C@@H]3C[C@@H](C[C@]4(CC[C@H](C)[C@@H](C5CCCCC5)O4)O3)OC(=O)[C@@H]3C=C(C)/C(=N/O)[C@H]4OC/C(=C\C=C\[C@@H]2C)[C@]43O)O[C@@H](C)[C@@H]1O [SELAMECTIN] | 109 | 29.1 | 20.6 | 99.6 |
| CN(C)CCOc1ccc(/C(=C(/CCCl)c2ccccc2)c2ccccc2)cc1 [Toremifene citrate] | 104 | 20.6 | 29.1 | 128 |
| CO[C@H]1[C@@H](O)C[C@H](O[C@H]2[C@@H](O)C[C@H](O[C@H]3[C@@H](O)C[C@H](O[C@H]4CC[C@@]5(C)[C@H](CC[C@@H]6[C@@H]5C[C@@H](O)[C@]5(C)[C@@H](C7=CC(=O)OC7)CC[C@]65O)C4)O[C@@H]3C)O[C@@H]2C)O[C@@H]1C [Methyldigoxin] | 86.6 | 0.0891 | 0.1 | 90.7 |
| O=c1ccc2ccc(OCCCCN3CCN(c4cccc5sccc45)CC3)cc2[nH]1 [Brexpiprazole] | 106 | 18.3 | 20.6 | 102 |
| N#CC[C@H](C1CCCC1)n1cc(-c2ncnc3[nH]ccc23)cn1 [Ruxolitinib] | 88.8 | 29.1 | 29.1 | 85.9 |
| C[C@]12CC[C@H]3[C@@H](CCC4=CC(=O)CC[C@@H]43)[C@@H]1CC[C@@H]2OC(=O)CCc1ccco1 [Nandrolone furylpropionate] | 88 | 29.1 | 29.1 | 93.3 |
| CC1(C)C(/C=C/C=C/C=C/C=C2\N(CCCCS(=O)(=O)O)c3ccc4ccccc4c3C2(C)C)=[N+](CCCCS(=O)(=O)[O-])c2ccc3ccccc3c21 [INDOCYANINE GREEN] | – | 29.1 | > 45.8 | 43.6 |
| Clc1ccc(C(Cn2ccnc2)OCc2ccsc2Cl)c(Cl)c1 (stereo not given) [Tioconazole] | 91.7 | 20.6 | 18.3 | 102 |
| CC(=O)Nc1cccc(-n2c(=O)n(C3CC3)c(=O)c3c(Nc4ccc(I)cc4F)n(C)c(=O)c(C)c32)c1 [Trametinib] | 82.8 | 0.259 | 0.0206 | 92.3 |
| CC(C)(C)c1nc(-c2cccc(NS(=O)(=O)c3c(F)cccc3F)c2F)c(-c2ccnc(N)n2)s1 [Dabrafenib] | 81.6 | 23.1 | 9.2 | 46.2 |
| CO[C@H]1C[C@@H]2CC[C@@H](C)[C@@](O)(O2)C(=O)C(=O)N2CCCC[C@H]2C(=O)O[C@H]([C@H](C)C[C@@H]2CC[C@@H](OC(=O)C(C)(CO)CO)[C@H](OC)C2)CC(=O)[C@H](C)/C=C(\C)[C@@H](O)[C@@H](OC)C(=O)[C@H](C)C[C@H](C)/C=C/C=C/C=C/1C [Temsirolimus] | 79 | 14.2 | 15.9 | 74.5 |
| CC(C)C[C@H]1C(=O)N2CCC[C@H]2[C@]2(O)O[C@](NC(=O)[C@@H]3C=C4c5cccc6[nH]c(Br)c(c56)C[C@H]4N(C)C3)(C(C)C)C(=O)N12 [BROMOCRIPTINE] | 43.2 | > 45.8 | 18.3 | – |
| CC[C@@]1(O)C(=O)OCc2c1cc1n(c2=O)Cc2c-1nc1cc(F)c(C)c3c1c2[C@@H](N)CC3 [Exatecan] | 48.8 | 0.0259 | 0.0231 | 60 |
| O=c1[nH]c2ccccc2n1CCCN1CCN(C(c2ccccc2)c2ccccc2)CC1 [Oxatomide] | 84.5 | 18.3 | 29.1 | 73.2 |
| CC(=O)[C@]1(O)Cc2c(O)c3c(c(O)c2[C@@H](O[C@H]2C[C@H](N)[C@H](O)[C@H](C)O2)C1)C(=O)c1ccccc1C3=O [Idarubicin hydrochloride] | 78.8 | 1.64 | 0.58 | 80.9 |
| Cc1[nH]c2ccccc2c1CCNCc1ccc(/C=C/C(=O)NO)cc1 [Panobinostat] | 94.8 | 0.0651 | 0.058 | 95.6 |
| O=C(O)c1ccc(-n2nc(-c3ccccc3O)nc2-c2ccccc2O)cc1 [Deferasirox] | 109 | 18.3 | 29.1 | 99.7 |

| Compound | efficacy ([1]; ICRF193 200 nM) [%] | IC50 cell viability ([2]; ICRF193 0 nM) [µM] | IC50 cell viability ([2]; ICRF193 200 nM) [µM] | efficacy ([1]; ICRF193 0 nM) [%] |
| --- | --- | --- | --- | --- |
| C[C@H]1[C@H](OC(=O)CCC(=O)O)O[C@@H]2O[C@@]3(C)CC[C@H]4[C@H](C)CC[C@@H]1[C@@]24OO3 [ARTESUNATE] | 86.8 | 1.64 | 0.73 | 93.1 |
| C1CCC(C(CC2CCCCN2)C2CCCCC2)CC1 (stereo not given) [Perhexiline] | 100 | 18.3 | 18.3 | 90.2 |
| CCC1=C[C@@H]2CN(C1)Cc1c([nH]c3ccccc13)[C@@](C(=O)OC)(c1cc3c(cc1OC)N(C)[C@H]1[C@@](O)(C(=O)OC)[C@H](OC(C)=O)[C@]4(CC)C=CCN5CC[C@]31[C@@H]54)C2 [Vinorelbine tartrate] | 72.3 | 0.0651 | 0.058 | 64.9 |
| CNC(=O)c1ccc(N2C(=S)N(c3ccc(C#N)c(C(F)(F)F)c3)C(=O)C2(C)C)cc1F [Enzalutamide] | 45.8 | > 45.8 | 20.6 | – |
| CC(CCc1ccccc1)NC(C)C(O)c1ccc(O)cc1 (stereo not given) [Nylidrin] | 40.7 | > 45.8 | 16.4 | – |
| Cc1cc(/C=C/c2ccc3cc(N(C)C)ccc3[n+]2C)c(C)n1-c1ccccc1 [PYRVINIUM PAMOATE] | 93.2 | 20.6 | 18.3 | 111 |
| CC[C@@]1([C@@H]2O[C@@H]([C@H]3O[C@@](O)(CO)[C@H](C)C[C@@H]3C)C[C@@H]2C)CC[C@H]([C@]2(C)CC[C@]3(C[C@H](O)[C@@H](C)[C@@H]([C@@H](C)[C@@H](OC)[C@H](C)C(=O)O)O3)O2)O1 [Monensin sodium salt] | 83.4 | 3.18 | 3.18 | 81.1 |
| CN(Cc1cnc2nc(N)nc(N)c2n1)c1ccc(C(=O)N[C@@H](CCC(=O)O)C(=O)O)cc1 [Methotrexate] | 93.9 | 0.146 | 0.146 | 91.8 |
| Cc1cnc(C(=O)N[C@H]2CCCCC/C=C\[C@@H]3C[C@@]3(C(=O)NS(=O)(=O)C3CC3)NC(=O)[C@@H]3C[C@@H](Oc4nc5ccccc5c5ccccc45)CN3C2=O)cn1 [ABT-450] | 100 | 29.1 | 18.3 | 110 |
| COc1cc2c(c(OC)c1OC)-c1ccc(OC)c(=O)cc1[C@@H](NC(C)=O)CC2 [Colchicine] | 69.5 | 0.0326 | 0.0326 | 74 |
| C=C[C@@H]1C[C@]1(NC(=O)[C@@H]1C[C@@H](Oc2ncc(OC)c3ccc(Cl)cc23)CN1C(=O)[C@@H](NC(=O)OC(C)(C)C)C(C)(C)C)C(=O)NS(=O)(=O)C1CC1 | 92.4 | 20.6 | 20.6 | 92.8 |
| CN(C)c1ccc(C(=C2C=CC(=[N+](C)C)C=C2)c2c(O)c(S(=O)(=O)[O-])cc3cc(S(=O)(=O)O)ccc23)cc1 [Green S] | 79.5 | 18.3 | 10.3 | 93.6 |
| CC(=O)OC[C@H]1O[C@@H]([S-])[C@H](OC(C)=O)[C@@H](OC(C)=O)[C@@H]1OC(C)=O.CCP(CC)CC.[Au+] [Auranofin] | 96.8 | 2.59 | 2.59 | 102 |
| O=C1Nc2ccc(Cl)cc2[C@@](C#CC2CC2)(C(F)(F)F)O1 [Efavirenz] | 44.6 | 20.6 | 25.9 | 56.7 |
| COC(=O)N[C@H](C(=O)N1CCC[C@H]1c1ncc(-c2ccc(-c3ccc(-c4cnc([C@@H]5CCCN5C(=O)[C@@H](NC(=O)OC)C(C)C)[nH]4)cc3)cc2)[nH]1)C(C)C [Daclatasvir dihydrochloride] | 101 | 29.1 | 29.1 | 103 |
| CC1=C(C(=O)OC(C)C)C(c2cccc([N+](=O)[O-])c2)C(C(=O)OC2CN(C(c3ccccc3)c3ccccc3)C2)=C(N)N1 (stereo not given) [Azelnidipine] | 98 | 23.1 | 18.3 | 124 |
| Cc1c(O)cccc1C(=O)N[C@@H](CSc1ccccc1)[C@H](O)CN1C[C@H]2CCCC[C@H]2C[C@H]1C(=O)NC(C)(C)C [Nelfinavir mesylate] | 106 | 29.1 | 20.6 | 104 |
| CN1CCc2c(c3ccccc3n2Cc2ccccc2)C1 [MEBHYDROLIN] | 41.4 | > 45.8 | 11.6 | – |
| Cc1cc(-c2ccc(/N=N/c3ccc4c(S(=O)(=O)O)cc(S(=O)(=O)O)c(N)c4c3O)c(C)c2)ccc1/N=N/c1ccc2c(S(=O)(=O)O)cc(S(=O)(=O)O)c(N)c2c1O [EVANS BLUE] | 87.8 | 18.3 | 18.3 | 95.6 |
| CN(C)/N=N/c1[nH]cnc1C(N)=O [Dacarbazine] | 91.9 | 7.3 | 16.4 | 66.6 |
| C[C@](C#N)(COc1cc(C#N)ccc1C(F)(F)F)NC(=O)c1ccc(SC(F)(F)F)cc1 [Monepantel] | 90.3 | 23.1 | 20.6 | 98.1 |
| CC[C@]1(O)C[C@@H]2CN(CCc3c([nH]c4ccccc34)[C@@](C(=O)OC)(c3cc4c(cc3OC)N(C)[C@H]3[C@@](O)(C(N)=O)[C@H](O)[C@]5(CC)C=CCN6CC[C@]43[C@@H]65)C2)C1 [Vindesine sulfate salt] | 69.2 | 0.058 | 0.058 | 75.5 |
| CCCCc1oc2ccc(NS(C)(=O)=O)cc2c1C(=O)c1ccc(OCCCN(CCCC)CCCC)cc1 [Dronedarone hydrochloride] | 68.2 | 20.6 | 29.1 | 115 |
| Cc1c(-c2ccc(O)cc2)n(Cc2ccc(OCCN3CCCCCC3)cc2)c2ccc(O)cc12 [Bazedoxifene] | 47.4 | > 45.8 | 23.1 | – |

From the supplement of paper PMC12137928
